This note sets out measurements from patent US20240293392A1, “INHIBITOR COMPOUNDS” (NeoPhore Limited, priority 2021, published 2024).

Assay [1] deals with T1, recombinant N-terminal MLH1 (residues 15-340) (Homo sapiens, UniProt P40692).
T1 construct: recombinant N-terminal MLH1 (residues 15-340)
T1 sequence (P40692 15-340): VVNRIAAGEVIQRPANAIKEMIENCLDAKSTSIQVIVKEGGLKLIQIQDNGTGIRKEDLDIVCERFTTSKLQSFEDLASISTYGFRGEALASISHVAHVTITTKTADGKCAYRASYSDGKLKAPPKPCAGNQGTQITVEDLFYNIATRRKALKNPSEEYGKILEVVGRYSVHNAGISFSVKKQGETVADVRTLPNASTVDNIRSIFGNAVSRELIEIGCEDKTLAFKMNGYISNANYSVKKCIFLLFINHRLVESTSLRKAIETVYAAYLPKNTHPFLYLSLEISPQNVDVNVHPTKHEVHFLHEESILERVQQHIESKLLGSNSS
Briefly: Fluorescence Polarisation Assay for MLH1. Type of assay: binding. Conditions: fluorescence polarisation probe displacement; 100 nM N-terminal MLH1, 5 nM probe compound. The method in brief: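 FP displacement assay: 100 nM MLH1 (residues 15-340) preincubated 30 min at room temperature with compound in 25 mM HEPES pH 7.5, 250 mM NaCl, 10 mM MgCl2, 0.01% Triton X-100, 5 mM DTT, then 5 nM rhodamine-labelled probe added and read immediately. Data normalised to no-inhibitor and no-enzyme controls.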

The target of assay [2] is T2, recombinant N-terminal PMS2 (residues 1-365) (Homo sapiens, UniProt P54278).
T2 construct: recombinant N-terminal PMS2 (residues 1-365)
T2 sequence (P54278 1-365): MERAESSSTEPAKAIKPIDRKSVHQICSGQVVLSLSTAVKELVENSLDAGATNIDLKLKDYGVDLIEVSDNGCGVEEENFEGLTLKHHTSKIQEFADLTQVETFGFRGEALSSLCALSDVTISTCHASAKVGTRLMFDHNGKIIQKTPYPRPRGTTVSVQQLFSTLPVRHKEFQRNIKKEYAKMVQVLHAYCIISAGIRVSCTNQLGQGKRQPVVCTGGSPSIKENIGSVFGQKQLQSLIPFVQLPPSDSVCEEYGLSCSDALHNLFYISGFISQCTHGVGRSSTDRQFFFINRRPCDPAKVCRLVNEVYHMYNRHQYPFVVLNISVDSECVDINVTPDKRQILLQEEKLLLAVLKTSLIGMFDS
Briefly: Fluorescence Polarisation Assay for PMS2. Type of assay: binding. Conditions: fluorescence polarisation probe displacement; 10 nM N-terminal PMS2, 5 nM probe compound; read-out: PMS2 IC50. Put shortly: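 Competition fluorescence polarisation with 10 nM N-terminal PMS2 and 5 nM fluorescent probe (final), read after 1 h at room temperature following 30 min compound pre-incubation. Data normalised to no-inhibitor and no-enzyme controls; single-point screening or serial dilutions for potency.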

Bounds are passed on as bounds.

For `CC(=O)N1CC(Nc2cccc3c2CN(C(=O)c2c(O)cc(O)cc2OCc2ccccc2)CC3)C1` [Example 146, 1-(3-((2-(2-(Benzyloxy)-4,6-dihydroxybenzoyl)-1,2,3,4-tetrahydroisoquinolin-8-yl)amino)azetidin-1-yl)ethan-1-one], the IC50 in assay [1] was less than 1000 nM; in assay [2], 1000 to 10000 nM.
As to `CN1CC(Nc2cccc3c2CN(C(=O)c2c(O)cc(O)cc2OCc2ccccc2)CC3)CC1=O` (stereo not drawn) [Example 42, 4-((2-(2-(Benzyloxy)-4,6-dihydroxybenzoyl)-1,2,3,4-tetrahydroisoquinolin-8-yl)amino)-1-methylpyrrolidin-2-one], the IC50 in assay [1] and in assay [2] was less than 1000 nM throughout.
Regarding `O=C(c1c(O)cc(O)cc1OCc1ccccc1)N1CCc2ncnc(N[C@H]3CCOC3)c2C1` [Example 115, (S)-(2-(Benzyloxy)-4,6-dihydroxyphenyl)(4-((tetrahydrofuran-3-yl)amino)-7,8-dihydropyrido[4,3-d]pyrimidin-6(5H)-yl)methanone], the IC50 in assay [1] and in assay [2] was 1000 to 10000 nM throughout.
Regarding `O=C(c1c(O)cc(O)cc1OCc1ccccc1)N1CCc2nccc(N[C@H]3CCOC3)c2C1` [Example 63, (S)-(2-(Benzyloxy)-4,6-dihydroxyphenyl)(4-((tetrahydrofuran-3-yl)amino)-7,8-dihydro-1,6-naphthyridin-6(5H)-yl)methanone], the concentration for half-maximal inhibition (IC50) in assay [1] was less than 1000 nM; in assay [2], 1000 to 10000 nM.
Take `CN1CCC(Nc2cccc3c2CN(C(=O)c2c(O)cc(O)cc2OCc2ccccc2)CC3)CC1` [Example 77, (2-(Benzyloxy)-4,6-dihydroxyphenyl)(8-((1-methylpiperidin-4-yl)amino)-3,4-dihydroisoquinolin-2(1H)-yl)methanone]: the half-maximal inhibitory concentration (IC50) in assay [1] and in assay [2] was greater than 10000 nM in each case.
In the case of `COCCCC(=O)N1CC[C@H](Nc2cccc3c2CN(C(=O)c2c(O)cc(O)cc2OCc2ccccc2)CC3)C1` [Example 151, (S)-1-(3-((2-(2-(Benzyloxy)-4,6-dihydroxybenzoyl)-1,2,3,4-tetrahydroisoquinolin-8-yl)amino)pyrrolidin-1-yl)-4-methoxybutan-1-one], the half-inhibitory concentration (IC50) was less than 1000 nM in assay [1] and greater than 10000 nM in assay [2].
Take `CN1C[C@H](Nc2cccc3c2CN(C(=O)c2c(O)cc(O)cc2OCc2ccccn2)CC3)CC1=O` [Example 59, (R)-4-((2-(2,4-dihydroxy-6-(pyridin-2-ylmethoxy)benzoyl)-1,2,3,4-tetrahydroisoquinolin-8-yl)amino)-1-methylpyrrolidin-2-one]: the half-maximal inhibitory concentration (IC50) in assay [1] was less than 1000 nM; in assay [2], 1000 to 10000 nM.
The matching figures for `O=C(c1c(O)cc(O)cc1OCc1ccccc1)N1Cc2cccc(N3CCCC(O)C3)c2C1` (stereo not drawn) [Example 8, (2-(Benzyloxy)-4,6-dihydroxyphenyl)(4-(3-hydroxypiperidin-1-yl)isoindolin-2-yl)methanone]: 1000 to 10000 nM and 1000 to 10000 nM.
The matching figures for `O=C(c1c(O)cc(O)cc1OCc1ccccc1)N1Cc2cccc(NC34CCC(C3)OC4)c2C1` (stereo not drawn) [Example 53, (4-((2-Oxabicyclo[2.2.1]heptan-4-yl)amino)isoindolin-2-yl)(2-(benzyloxy)-4,6-dihydroxyphenyl)methanone]: less than 1000 nM and 1000 to 10000 nM.
For `CN(C)Cc1ccc2c(c1)CCN(C(=O)c1c(O)cc(O)cc1OCc1ccccc1)C2` [Example 46, (2-Benzyloxy-4,6-dihydroxy-phenyl)-[6-[(dimethylamino)methyl]-3,4-dihydro-1H-isoquinolin-2-yl]methanone], in that order: 1000 to 10000 nM and 1000 to 10000 nM.
In the case of `CC(=O)Nc1cccc2c1CN(C(=O)c1c(O)cc(O)cc1OCc1ccccc1)CC2` [Example 101, N-(2-(2-(benzyloxy)-4,6-dihydroxybenzoyl)-1,2,3,4-tetrahydroisoquinolin-8-yl)acetamide], the IC50 in assay [1] and in assay [2] was 1000 to 10000 nM throughout.
On to `CC(=O)N1CC[C@H](Nc2cccc3c2CN(C(=O)c2c(O)cc(O)cc2OCc2ccccc2)CC3)C1` [Example 65, (S)-1-(3-((2-(2-(Benzyloxy)-4,6-dihydroxybenzoyl)-1,2,3,4-tetrahydroisoquinolin-8-yl)amino)pyrrolidin-1-yl)ethan-1-one], for which the figures for the IC50 in assay [1] and in assay [2] were less than 1000 nM and greater than 10000 nM, respectively.
The matching figures for `CN1CCC(Oc2cc3c(c(N[C@@H]4CCOC4)c2)CN(C(=O)c2c(O)cc(O)cc2OCc2ccccc2)CC3)CC1` [Example 138, (R)-(2-(Benzyloxy)-4,6-dihydroxyphenyl)(6-((1-methylpiperidin-4-yl)oxy)-8-((tetrahydrofuran-3-yl)amino)-3,4-dihydroisoquinolin-2(1H)-yl)methanone]: less than 1000 nM and 1000 to 10000 nM.
With `O=C(c1c(O)cc(O)cc1OCc1ccccc1)N1Cc2cccc(NCC3CCOC3)c2C1` (stereo not drawn) [Example 112, (2-(Benzyloxy)-4,6-dihydroxyphenyl)(4-(((tetrahydrofuran-3-yl)methyl)amino)isoindolin-2-yl)methanone], the concentration for half-maximal inhibition (IC50) was less than 1000 nM in assay [1] and 1000 to 10000 nM in assay [2].
The matching figures for `CC(=O)N1CC[C@@H](Nc2cccc3c2CN(C(=O)c2c(O)cc(O)cc2OCc2ccccc2)CC3)C1` [Example 66, (R)-1-(3-((2-(2-(Benzyloxy)-4,6-dihydroxybenzoyl)-1,2,3,4-tetrahydroisoquinolin-8-yl)amino)pyrrolidin-1-yl)ethan-1-one]: less than 1000 nM and greater than 10000 nM.
For `CN1CC(Nc2cccc3c2CN(C(=O)c2c(O)cc(O)cc2OCc2ccccc2)CC3)CC1=O` (single isomer, unassigned) [Example 62, 4-((2-(2-(Benzyloxy)-4,6-dihydroxybenzoyl)-1,2,3,4-tetrahydroisoquinolin-8-yl)amino)-1-methylpyrrolidin-2-one], in that order: less than 1000 nM and less than 1000 nM.
The matching figures for `CN1CC(Nc2cccc3c2CN(C(=O)c2c(O)cc(O)cc2OCc2ccccc2)C3)CC1=O` (stereo not drawn) [Example 18, 4-((2-(2-(Benzyloxy)-4,6-dihydroxybenzoyl)isoindolin-4-yl)amino)-1-methylpyrrolidin-2-one]: less than 1000 nM and 1000 to 10000 nM.
On to `O=C(c1c(O)cc(O)cc1OCc1ccccc1)N1CCc2ccc(CNC3CCOC3)cc2C1` (stereo not drawn) [Example 85, (2-(Benzyloxy)-4,6-dihydroxyphenyl)(7-(((tetrahydrofuran-3-yl)amino)methyl)-3,4-dihydroisoquinolin-2(1H)-yl)methanone], for which the IC50 in assay [1] and in assay [2] was 1000 to 10000 nM each time.
Take `O=C(c1c(O)cc(O)cc1OCc1ccccc1)N1Cc2cccc(NC3CCOC3)c2C1` (stereo not drawn) [Example 6, (2-(Benzyloxy)-4,6-dihydroxyphenyl)(4-((tetrahydrofuran-3-yl)amino)isoindolin-2-yl)methanone]: the half-inhibitory concentration (IC50) in assay [1] was less than 1000 nM; in assay [2] it was 1000 to 10000 nM.
The matching figures for `CN1C[C@@H](Nc2cccc3c2CN(C(=O)c2c(O)cc(O)cc2OCc2ccccc2)C3)CC1=O` [Example 137, (S)-4-((2-(2-(Benzyloxy)-4,6-dihydroxybenzoyl)isoindolin-4-yl)amino)-1-methylpyrrolidin-2-one]: less than 1000 nM and less than 1000 nM.
With `CN(C)CCOc1cc2c(c(N[C@H]3CCOC3)c1)CN(C(=O)c1c(O)cc(O)cc1OCc1ccccc1)CC2` [Example 132, (S)-(2-(Benzyloxy)-4,6-dihydroxyphenyl)(6-(2-(dimethylamino)ethoxy)-8-((tetrahydrofuran-3-yl)amino)-3,4-dihydroisoquinolin-2(1H)-yl)methanone], the IC50 in assay [1] and in assay [2] was less than 1000 nM in each case.
For the compound `O=C(c1c(O)cc(O)cc1OCc1cccnc1)N1Cc2cccc(NC3CCOC3)c2C1` (stereo not drawn) [Example 96, (2,4-dihydroxy-6-(pyridin-3-ylmethoxy)phenyl)(4-((tetrahydrofuran-3-yl)amino)isoindolin-2-yl)methanone], the IC50 is less than 1000 nM in assay [1] and greater than 10000 nM in assay [2].
Take `CNCc1ccc2c(c1)CN(C(=O)c1c(O)cc(O)cc1OCc1ccccc1)C2` [Example 4, (2-(Benzyloxy)-4,6-dihydroxyphenyl)(5-((methylamino)methyl)isoindolin-2-yl)methanone]: the IC50 in assay [1] and in assay [2] was less than 1000 nM throughout.
As to `COC1COCC1Nc1cccc2c1CN(C(=O)c1c(O)cc(O)cc1OCc1ccccc1)CC2` (stereo not drawn) [Example 148, (2-(Benzyloxy)-4,6-dihydroxyphenyl)(8-((4-methoxytetrahydrofuran-3-yl)amino)-3,4-dihydroisoquinolin-2(1H)-yl)methanone], the half-inhibitory concentration (IC50) in assay [1] was 1000 to 10000 nM; in assay [2], greater than 10000 nM.
